Test results taken from patent US20260144797A1, “METHODS OF REDUCING OR PREVENTING METASTASES” (FOGHORN THERAPEUTICS INC., priority 2022, published 2026).

Legend:
Assay type in all cases: in vivo
[1] = test system: uveal melanoma (UM) CDX models MP-41 and MP-46; assay: Differential gene expression by RNA-seq in UM CDX models (Example 1); conditions: MP-41 and MP-46 CDX; 0.5-3 mpk QD or BID; 5 days; RNA-seq (FIG. 3)
Protocol: Uveal melanoma can be classified into Class 1 or Class 2 tumors based on the DecisionDx®-UM gene expression profiling (GEP) test, a widely used prognostic test to predict individual risk of metastasis in patients with uveal melanoma. Class 1 and 2 tumors are associated with low and high risk of metastasis, respectively. Gene expression profiling (GEP) Class 2 (dark blue), GEP Class 1 (light blue), PRAME (green), and BAP1 (orange) expression were measured in three uveal melanoma (UM) CDX models: 92-1, MP-41, and MP-46 (FIG. 2). GEP class 1 and GEP class 2 are defined in FIG. 1.
Differential gene expression was measured by RNA-seq in two uveal melanoma (UM) CDX models: MP-41 and MP-46 (FIG. 3). UM CDX model MP-41 was divided into four cohorts—cohort one was treated with 0.5 mpk of Compound A twice a day (BID), cohort two was treated with 1 mpk of Compound A once a day (QD), cohort three was treated with 1 mpk of Compound A twice a day, and cohort 4 was treated with 2 mpk of Compound A once a day. UM CDX model MP-46 was divided into six cohorts —cohort one was treated with 0.5 mpk of Compound A twice a day (BID), cohort two was treated with 1 mpk of Compound A once a day (QD), cohort three was treated with 0.75 mpk of Compound A twice a day, cohort 4 was treated with 1.5 mpk of Compound A once a day, cohort five was treated with 1.5 mpk of Compound A twice a day, and cohort six was treated with 3 mpk of Compound A twice a day. All treatments ended at 5 days, and animals were sacrificed. GEP Class 1 (green) comprises 8 genes that are high in Class 1 (low risk), and GEP Class 2 (blue) comprises 4 genes that are high in Class 2 (higher risk). PRAME (grey) positivity is associated with poor prognosis in several malignancies, including UM.

[2] = test system: uveal melanoma (UM) CDX model MP-41; assay: Differential gene expression by RNA-seq in UM CDX model MP-41 (Example 2); conditions: MP-41 CDX; 0.5-2 mpk QD or BID; 4 or 5 days; RNA-seq (FIG. 4)
Protocol: Differential gene expression was measured by RNA-seq in uveal melanoma (UM) CDX model: MP-41 (FIG. 4). This CDX model is a BAP1 intact but aggressive uveal melanoma model. UM CDX model MP-41 was divided into four cohorts—cohort one was treated with 0.5 mpk of Compound A twice a day (BID), cohort two was treated with 1 mpk of Compound A once a day (QD), cohort three was treated with 1 mpk of Compound A twice a day, and cohort 4 was treated with 2 mpk of Compound A once a day. All treatments ended at 4 or 5 days, and animals were sacrificed.

[3] = test system: uveal melanoma (UM) CDX models 92-1, MP-41, and MP-46; assay: Differential gene expression by RNA-seq, MITF/SOX10 pathway (Example 3); conditions: 92.1 and MP-46: 1.5 mpk QD, 6 days; MP-41: 2 mpk daily, 4 days; RNA-seq (FIG. 5)
Protocol: Differential gene expression was measured by RNA-seq in three uveal melanoma (UM) CDX models: 92-1, MP-41, and MP-46 (FIG. 5 and FIG. 6). UM CDX models 92.1 and MP-46 were treated with 1.5 mpk of Compound A, daily (QD), for 6 days, and then animals were sacrificed (FIG. 5). UM CDX model MP-41 was treated with 2 mpk of Compound A, daily, for 4 days, and then animals were sacrificed (FIG. 5). Expression of SOX10, MITF (PD markers) and their downstream targets: melanin pathway markers MLANA, PMEL, and TYR were analyzed. Cyclin D1 is a cell proliferation marker, and BRM and BRG1 were analyzed for candidate selection.

[4] = test system: MP-41 CDX tumor; assay: Immunohistochemistry of MP-41 CDX tumor slices
Protocol: Representative MP-41 CDX tumor slices were analyzed after 5 days of treatment with 2 mpk of Compound A (OnTx) or a Vehicle (Veh), administered daily (FIGS. 7A and 7B).

[5] = MP-41 xenograft studies (FIGS. 7A and 7B)

`COC[C@@H](NC(=O)c1ccn(S(C)(=O)=O)c1)C(=O)Nc1nc(-c2cccc(N3C[C@@H](C)O[C@@H](C)C3)n2)cs1` (stereo in doubt) [Compound A, N-(1-((4-(6-(2,6-dimethylmorpholino)pyridin-2-yl)thiazol-2-yl)amino)-3-methoxy-1-oxopropan-2-yl)-1-(methylsulfonyl)-1H-pyrrole-3-carboxamide] was tested, and the “DecisionDx-UM Gene Expression Profile (GEP)” value [1] was “positive shift”, the PRAME expression [1] was “decrease” and the “higher risk profile Class 2 genes expression” value [1] was “decrease”. The BAP1 expression [2] was “subtle upregulation”, the GDF15 expression [2] was “dose-dependent downregulation” and the PROS1 expression [2] was “dose-dependent downregulation”. The MITF expression [3] was “sustained downregulation”, the SOX10 expression [3] was “sustained downregulation” and the “melanoma-specific downstream targets of MITF and SOX10, expression” value [3] was “sustained downregulation”. For the same compound, the “proliferation marker Cyclin D1 (IHC)” value ([4]; MP-41 CDX, 2 mpk daily, 5 days (FIGS. 7A and 7B)) was “decreases with treatment”, the “melanin pathway markers downstream of MITF/SOX10 signaling (IHC)” value [4, 5] was “Decrease” and the “proliferation markers (IHC)” value [4, 5] was “Decrease”.
